Patent US4087534A, “N-haloalkylmio urazole pesticides” (priority 1974, dated 1978)

Tested on: Penicillium Chrysogenom
Assay: Modified Agar plate method, fungicidal activity against Penicillium spores (number of colonies)
Format: cell-based
Conditions: Treatment II: 1 ml solution of Captan in water at 200 ppm

O=C1C2CC=CCC2C(=O)N1SC(Cl)(Cl)Cl (stereo not shown) [CAPTAN, Captan]
inhibition (observation of number of colonies): total inhibition
